Measurements reported in ChEMBL document CHEMBL1201862, “PubChem BioAssay data set” (2004).
Activity calls are given as the source filed them.

Legend:
[1] = target: Mu-type opioid receptor (Homo sapiens, UniProt P35372); test: HTS Image-Based Screen for Agonists of the MOR Receptor. [Related pubchem assays (depositor defined):AID1777, AID1785, AID1786, AID2133]; format: functional;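 also: imaging of beta-arrestin GFP recruitment into spots after receptor activation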
[2] = target: T1, Beta-galactosidase (Escherichia coli, UniProt Q8VNN2); format: functional
T1 sequence (Q8VNN2 whole entry): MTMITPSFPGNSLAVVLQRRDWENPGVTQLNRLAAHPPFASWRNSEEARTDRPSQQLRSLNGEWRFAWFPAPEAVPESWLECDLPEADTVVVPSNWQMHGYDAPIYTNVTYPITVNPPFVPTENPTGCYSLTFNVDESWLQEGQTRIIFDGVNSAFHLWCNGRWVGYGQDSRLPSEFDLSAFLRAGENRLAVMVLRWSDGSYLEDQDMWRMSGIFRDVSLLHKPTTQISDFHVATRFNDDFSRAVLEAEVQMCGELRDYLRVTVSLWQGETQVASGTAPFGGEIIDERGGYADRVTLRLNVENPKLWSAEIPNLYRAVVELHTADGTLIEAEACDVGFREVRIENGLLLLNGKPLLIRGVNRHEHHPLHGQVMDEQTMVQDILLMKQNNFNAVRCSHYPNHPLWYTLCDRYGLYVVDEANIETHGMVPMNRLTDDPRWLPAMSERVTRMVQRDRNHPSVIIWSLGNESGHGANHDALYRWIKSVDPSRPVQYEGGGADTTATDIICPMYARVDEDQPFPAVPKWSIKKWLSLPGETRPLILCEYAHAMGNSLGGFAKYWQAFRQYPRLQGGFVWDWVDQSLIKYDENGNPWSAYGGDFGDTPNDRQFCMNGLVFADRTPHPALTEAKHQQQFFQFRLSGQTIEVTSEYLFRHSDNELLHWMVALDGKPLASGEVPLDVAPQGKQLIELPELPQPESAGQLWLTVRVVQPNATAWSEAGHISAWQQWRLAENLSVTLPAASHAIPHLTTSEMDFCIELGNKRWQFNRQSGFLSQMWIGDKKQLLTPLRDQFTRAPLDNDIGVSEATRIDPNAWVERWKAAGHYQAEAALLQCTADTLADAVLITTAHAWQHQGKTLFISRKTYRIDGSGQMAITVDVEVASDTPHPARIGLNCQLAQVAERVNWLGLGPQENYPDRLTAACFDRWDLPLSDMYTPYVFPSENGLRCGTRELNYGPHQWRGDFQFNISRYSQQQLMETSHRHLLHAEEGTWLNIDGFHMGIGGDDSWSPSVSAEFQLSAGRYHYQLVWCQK

[3] = target: T2, Kappa-type opioid receptor (Homo sapiens, UniProt P41145); format: functional
T2 sequence (P41145 whole entry): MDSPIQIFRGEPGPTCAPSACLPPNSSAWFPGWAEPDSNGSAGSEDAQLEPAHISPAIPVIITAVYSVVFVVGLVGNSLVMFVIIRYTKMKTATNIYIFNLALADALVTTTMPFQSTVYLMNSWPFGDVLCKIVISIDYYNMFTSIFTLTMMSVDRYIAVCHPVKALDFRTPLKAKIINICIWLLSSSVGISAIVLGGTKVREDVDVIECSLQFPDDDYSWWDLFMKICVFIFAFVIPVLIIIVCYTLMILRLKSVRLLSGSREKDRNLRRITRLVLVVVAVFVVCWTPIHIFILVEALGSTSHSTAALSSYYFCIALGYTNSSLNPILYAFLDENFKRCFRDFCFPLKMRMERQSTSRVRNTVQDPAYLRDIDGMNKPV

[4] = target: T2, Kappa-type opioid receptor; format: functional; remark: listed apart in the source
[5] = target: T3, Delta-type opioid receptor (Homo sapiens, UniProt P41143); test: HTS Image-Based Screen for Antagonists of the DOR Receptor. [Related pubchem assays (depositor defined):AID1777, AID1785, AID1786, AID2133]; format: functional
T3 sequence (P41143 whole entry): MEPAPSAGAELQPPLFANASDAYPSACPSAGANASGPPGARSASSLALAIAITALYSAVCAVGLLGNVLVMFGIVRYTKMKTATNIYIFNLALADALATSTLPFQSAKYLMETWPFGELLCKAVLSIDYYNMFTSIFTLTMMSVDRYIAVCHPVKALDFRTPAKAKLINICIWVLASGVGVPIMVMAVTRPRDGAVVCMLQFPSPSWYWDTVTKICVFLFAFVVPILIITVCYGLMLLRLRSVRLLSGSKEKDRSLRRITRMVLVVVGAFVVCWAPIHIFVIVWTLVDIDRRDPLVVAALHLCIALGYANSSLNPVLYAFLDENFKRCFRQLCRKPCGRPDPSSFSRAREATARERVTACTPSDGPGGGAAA

[6] = target: T3, Delta-type opioid receptor; test: HTS Image-Based Screen for Agonists of the DOR Receptor. [Related pubchem assays (depositor defined):AID1777, AID1786, AID2133]; format: functional
[7] = tested on: HEK293; test: NOD2 signaling inhibitors in MDP-stimulated cells, cell-based, uHTS, luminescence (AID 2001); format: functional; details: Homo sapiens
[8] = target: T4, Serine/threonine-protein phosphatase (Candida dubliniensis (strain CD36 / CBS 7987 / NCPF 3949 / NRRLY-17841) (Yeast), UniProt B9W6M3); test: blockers of CaCl2-induced CDRE-lacZ signaling – S. cerevisiae, luminescence, secondary, dose response (AID 2388); format: functional, cell-based;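 also: yeast reporter cells carrying a calcineurin-responsive lacZ construct stimulated with calcium chloride; luminescent beta-galactosidase reporter signal in whole cells rather than isolated phosphatase activity; potency for inhibition where a drop in reporter signal means calcineurin blockade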
T4 sequence (B9W6M3 whole entry): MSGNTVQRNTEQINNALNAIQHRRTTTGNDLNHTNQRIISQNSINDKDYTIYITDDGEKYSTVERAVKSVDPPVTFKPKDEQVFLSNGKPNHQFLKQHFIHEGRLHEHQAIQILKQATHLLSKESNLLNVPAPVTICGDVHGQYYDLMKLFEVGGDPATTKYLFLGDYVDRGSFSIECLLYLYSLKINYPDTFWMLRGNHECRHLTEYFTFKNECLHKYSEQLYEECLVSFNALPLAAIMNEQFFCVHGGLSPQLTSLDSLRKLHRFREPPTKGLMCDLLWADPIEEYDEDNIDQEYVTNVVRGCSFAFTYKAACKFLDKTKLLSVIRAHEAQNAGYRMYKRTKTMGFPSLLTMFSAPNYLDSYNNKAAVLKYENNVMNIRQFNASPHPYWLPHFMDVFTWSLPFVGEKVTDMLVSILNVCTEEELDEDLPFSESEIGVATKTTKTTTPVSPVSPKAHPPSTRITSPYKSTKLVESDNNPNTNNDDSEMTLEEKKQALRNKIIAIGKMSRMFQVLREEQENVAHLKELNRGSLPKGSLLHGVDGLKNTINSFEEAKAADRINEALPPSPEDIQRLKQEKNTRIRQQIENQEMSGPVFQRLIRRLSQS

[9] = non-specific 3'UTR reporter inhibition in Clone20-Shn3RL – cell-based, Renilla luciferase, cherry-picked, counter-screen for Shn3 inhibitor project, dose response (AID 624133); format: functional
[10] = target: Signal transducer and activator of transcription 1-alpha/beta (Homo sapiens, UniProt P42224); test: STAT3 blockade with qPCR and toxicity readouts – cell-based, STAT1 panel, cytotoxicity, late-stage follow-up, panel member STAT1 Inhibition (AID 2078)
[11] = fluconazole-exposed Candida albicans growth modulators – fluorescence, retest, confirmation (AID 2467); format: functional, cell-based
[12] = loss of viability in HepG2 cells – cell-based, CellTiter-Glo, cherry-picked, cytotoxicity control for Shn3 inhibitor project, dose response (AID 624134); format: functional
[13] = decrease of insulin promoter-GFP reporter – imaging, high-content screening, mouse beta cells (AID 1628); format: functional; details: MIN6
[14] = tested on: HEK293; test: cells; format: functional, cell-based; details: Homo sapiens
[15] = MIN6 cell viability loss – mouse insulinoma, cytotoxicity control, dose response (AID 2122); format: functional;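 also: confirmatory high-throughput counterscreen run to flag cytotoxic compounds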
[16] = reduction of Shn3 3'UTR-driven luciferase in osteoblasts – cell-based, Clone20 osteoblasts, firefly luciferase, cherry-picked, dose response (AID 624132); format: functional;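 also: firefly luciferase luminescence from reporter carrying the Shn3 3'UTR in osteoblasts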
[17] = NIH-3T3 fibroblast cytotoxicity, dose response, cytotoxicity control, cell-based, fluorescence, Alamar Blue, secondary assay (AID 2327); format: functional;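 also: NIH-3T3 mouse fibroblasts cultured with fluconazole at 8 µg/mL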
[18] = target: ATP-dependent molecular chaperone HSP82 (Candida albicans (strain WO-1) (Yeast), UniProt C4YTQ8); test: steroid-induced GRE reporter decrease in yeast – S. cerevisiae, luminescence, Hsp90 inhibitor project, dose response (AID 2400); format: functional, cell-based;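 also: beta-galactosidase luminescence from glucocorticoid response element reporter as proxy for Hsp90 function; inhibitor potency where signal loss means Hsp90 inhibition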
Sequence of ATP-dependent molecular chaperone HSP82 (C4YTQ8 whole entry): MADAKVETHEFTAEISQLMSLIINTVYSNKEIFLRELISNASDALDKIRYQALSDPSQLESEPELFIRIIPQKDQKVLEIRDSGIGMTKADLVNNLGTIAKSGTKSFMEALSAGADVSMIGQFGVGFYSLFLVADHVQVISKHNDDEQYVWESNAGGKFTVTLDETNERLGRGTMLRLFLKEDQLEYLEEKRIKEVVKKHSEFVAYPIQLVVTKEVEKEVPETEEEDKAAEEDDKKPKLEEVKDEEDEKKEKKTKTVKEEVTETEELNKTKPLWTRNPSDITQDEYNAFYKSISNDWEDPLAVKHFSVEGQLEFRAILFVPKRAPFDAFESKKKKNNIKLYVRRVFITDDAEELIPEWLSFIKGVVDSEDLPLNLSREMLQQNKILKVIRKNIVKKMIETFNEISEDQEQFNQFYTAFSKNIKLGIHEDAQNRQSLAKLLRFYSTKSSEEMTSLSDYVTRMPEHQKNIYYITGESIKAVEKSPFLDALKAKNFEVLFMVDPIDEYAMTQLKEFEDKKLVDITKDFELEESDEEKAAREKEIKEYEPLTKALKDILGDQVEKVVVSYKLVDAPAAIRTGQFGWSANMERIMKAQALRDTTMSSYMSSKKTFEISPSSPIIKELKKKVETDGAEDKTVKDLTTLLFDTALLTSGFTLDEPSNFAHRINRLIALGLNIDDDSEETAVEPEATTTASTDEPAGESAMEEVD

[19] = tested on: HEK293; test: cells; format: functional, cell-based; details: Homo sapiens; remark: listed apart in the source
[20] = target: Signal transducer and activator of transcription 3 (Homo sapiens, UniProt P40763); test: STAT3 blockade with qPCR and toxicity readouts – cell-based, STAT1 panel, cytotoxicity, late-stage follow-up, panel member STAT3 Inhibition (AID 2078)
[21] = tested on: HEK293; test: inhibition of NOD1-driven NF-kB reporter – cell-based, luminescence, uHTS, primary screen (AID 1578); format: functional; details: Homo sapiens
[22] = tested on: HEK293; test: cells; details: Homo sapiens
[23] = target: Tumor necrosis factor (Homo sapiens, UniProt P01375); test: analog potency on TNFa NF-kB signaling – cell-based, revised, SAR follow-up (AID 2337); format: functional
Sequence of Tumor necrosis factor (P01375 whole entry): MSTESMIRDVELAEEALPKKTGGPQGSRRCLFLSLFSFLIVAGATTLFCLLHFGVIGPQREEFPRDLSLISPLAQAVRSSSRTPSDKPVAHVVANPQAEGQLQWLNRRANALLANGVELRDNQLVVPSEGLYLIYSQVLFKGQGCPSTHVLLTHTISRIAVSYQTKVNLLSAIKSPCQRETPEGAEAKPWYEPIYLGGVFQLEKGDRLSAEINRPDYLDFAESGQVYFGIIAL

[24] = target: T5, Intestinal-type alkaline phosphatase (Homo sapiens, UniProt P09923); test: activation of human intestinal alkaline phosphatase – biochemical, luminescent, uHTS hits, set 2, dose response (AID 488817); format: functional;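 also: potency of activators that raise enzyme activity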
T5 sequence (P09923 whole entry): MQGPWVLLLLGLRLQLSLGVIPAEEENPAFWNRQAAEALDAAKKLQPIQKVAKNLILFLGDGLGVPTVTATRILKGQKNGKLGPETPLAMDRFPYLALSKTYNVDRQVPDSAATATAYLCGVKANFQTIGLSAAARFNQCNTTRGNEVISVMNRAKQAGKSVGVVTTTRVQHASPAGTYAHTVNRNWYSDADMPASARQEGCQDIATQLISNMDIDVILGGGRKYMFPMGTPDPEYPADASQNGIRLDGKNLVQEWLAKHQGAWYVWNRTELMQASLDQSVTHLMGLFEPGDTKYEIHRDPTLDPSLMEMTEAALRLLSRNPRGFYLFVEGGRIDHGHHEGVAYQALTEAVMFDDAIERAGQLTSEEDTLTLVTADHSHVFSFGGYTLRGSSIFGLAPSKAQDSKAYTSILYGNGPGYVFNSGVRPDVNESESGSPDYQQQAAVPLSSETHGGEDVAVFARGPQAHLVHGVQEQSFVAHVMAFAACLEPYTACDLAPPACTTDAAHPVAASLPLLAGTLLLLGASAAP

[25] = target: T5, Intestinal-type alkaline phosphatase; test: human intestinal alkaline phosphatase activators, dose response, biochemical, luminescence, uHTS hits (AID 463120); format: functional
[26] = target: T6, Alkaline phosphatase, tissue-nonspecific isozyme (Homo sapiens, UniProt P05186); test: activation of tissue-nonspecific alkaline phosphatase – biochemical, TNAP isozyme, human IAP uHTS hits, selectivity assay for human IAP activator project, dose response (AID 488886); format: functional;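 also: potency of compounds raising TNAP activity as a selectivity check on IAP activators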
T6 sequence (P05186 whole entry): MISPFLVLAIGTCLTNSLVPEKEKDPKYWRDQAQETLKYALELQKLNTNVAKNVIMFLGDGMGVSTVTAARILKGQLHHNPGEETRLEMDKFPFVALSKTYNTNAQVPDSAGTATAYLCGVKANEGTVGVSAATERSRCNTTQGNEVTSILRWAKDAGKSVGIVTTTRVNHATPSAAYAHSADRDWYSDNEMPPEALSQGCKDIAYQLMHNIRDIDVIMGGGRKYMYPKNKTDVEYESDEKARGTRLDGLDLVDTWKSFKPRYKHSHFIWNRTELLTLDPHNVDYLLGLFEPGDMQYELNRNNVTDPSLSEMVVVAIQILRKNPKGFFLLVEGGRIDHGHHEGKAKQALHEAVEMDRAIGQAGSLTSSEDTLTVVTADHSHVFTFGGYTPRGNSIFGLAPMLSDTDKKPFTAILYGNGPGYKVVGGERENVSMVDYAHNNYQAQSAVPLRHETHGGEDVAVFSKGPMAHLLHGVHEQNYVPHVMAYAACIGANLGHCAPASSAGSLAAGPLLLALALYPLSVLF

[27] = target: Intestinal-type alkaline phosphatase (Mus musculus, UniProt P24822); test: PubChem AID 488874; format: functional
Sequence of Intestinal-type alkaline phosphatase (Mus musculus, UniProt P24822) (P24822 whole entry): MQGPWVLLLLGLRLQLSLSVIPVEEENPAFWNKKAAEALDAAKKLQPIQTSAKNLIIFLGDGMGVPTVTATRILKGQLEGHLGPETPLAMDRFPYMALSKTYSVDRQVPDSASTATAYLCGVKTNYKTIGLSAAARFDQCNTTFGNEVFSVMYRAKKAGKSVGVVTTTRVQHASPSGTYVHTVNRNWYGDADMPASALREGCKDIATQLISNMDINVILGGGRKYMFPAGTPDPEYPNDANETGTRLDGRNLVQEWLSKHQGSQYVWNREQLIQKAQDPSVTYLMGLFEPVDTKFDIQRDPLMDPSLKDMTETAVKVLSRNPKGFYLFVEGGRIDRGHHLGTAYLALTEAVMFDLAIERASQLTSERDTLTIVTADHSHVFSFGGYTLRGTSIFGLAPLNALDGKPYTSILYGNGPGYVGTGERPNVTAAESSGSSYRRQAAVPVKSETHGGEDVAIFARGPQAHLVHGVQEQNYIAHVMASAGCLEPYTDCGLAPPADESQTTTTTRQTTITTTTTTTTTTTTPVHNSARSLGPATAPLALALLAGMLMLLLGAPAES

[28] = target: G-protein coupled receptor 55 (Homo sapiens, UniProt Q9Y2T6); test: inhibition of LPI-stimulated GPR55 beta-arrestin translocation – imaging, U2OS, beta-arrestin-GFP, LPI agonist, primary screen (AID 2013); format: functional;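 also: antagonist potency measured as reduced agonist-driven arrestin aggregation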
Sequence of G-protein coupled receptor 55 (Q9Y2T6 whole entry): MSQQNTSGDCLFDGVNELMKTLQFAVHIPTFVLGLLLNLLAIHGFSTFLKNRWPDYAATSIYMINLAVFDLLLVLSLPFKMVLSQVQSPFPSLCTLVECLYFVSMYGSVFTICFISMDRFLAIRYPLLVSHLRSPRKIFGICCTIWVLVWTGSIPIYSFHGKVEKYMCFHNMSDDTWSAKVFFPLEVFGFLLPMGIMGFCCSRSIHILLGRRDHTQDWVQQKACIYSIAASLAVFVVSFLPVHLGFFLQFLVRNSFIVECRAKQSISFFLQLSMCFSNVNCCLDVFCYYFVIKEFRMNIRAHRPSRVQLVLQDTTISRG

[29] = Trypanosoma cruzi growth suppression in host cells – NIH3T3 host cells, beta-gal luminescence, confirmation (AID 2044); format: functional, cell-based;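 also: intracellular parasites grown in NIH/3T3 mouse fibroblasts as host cells; luminescent beta-galactosidase reporter signal from transgenic T. cruzi replicating inside host cells; inhibitors lower the luminescence signal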
[30] = tested on: Streptococcus; test: GAS UMAA2166 growth inhibition – luminescence, BacTiterGlo, counter-screen for streptokinase expression inhibitor project, dose response (AID 1915); format: functional, organism-based;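 also: potency for reduction of bacterial viability or growth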
[31] = tested on: Streptococcus sp. 'group A'; test: Streptococcus pyogenes SK(-)GAS viability under kanamycin – luminescence, BacTiterGlo, confirmation, counter-screen for streptokinase expression inhibitor project, dose response (AID 1900); format: functional, organism-based
[32] = target: Photoreceptor-specific nuclear receptor (Homo sapiens, UniProt Q9Y5X4); format: functional, cell-based;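 also: CHO-S cells with Gal4-NCOR and VP16-NR2E3 two-hybrid luciferase reporter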
Sequence of Photoreceptor-specific nuclear receptor (Q9Y5X4 whole entry, the tested form may be a part): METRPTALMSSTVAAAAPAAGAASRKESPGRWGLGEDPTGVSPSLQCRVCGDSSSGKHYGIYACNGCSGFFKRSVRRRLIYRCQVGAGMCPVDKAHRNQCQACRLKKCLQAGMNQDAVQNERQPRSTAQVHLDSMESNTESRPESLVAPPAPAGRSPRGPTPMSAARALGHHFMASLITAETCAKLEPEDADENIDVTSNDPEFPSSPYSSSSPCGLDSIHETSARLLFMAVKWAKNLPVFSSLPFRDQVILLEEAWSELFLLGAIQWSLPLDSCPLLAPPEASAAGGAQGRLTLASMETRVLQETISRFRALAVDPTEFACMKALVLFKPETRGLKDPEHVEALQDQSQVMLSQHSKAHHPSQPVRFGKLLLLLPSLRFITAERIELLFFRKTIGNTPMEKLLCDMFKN

[33] = NIH3T3 cell viability loss – ATP luminescence, mouse fibroblasts, counter-screen, dose response (AID 2010); format: functional, cell-based;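 also: cells exposed to compound for about 90 hours before reading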
[34] = tested on: Vero; test: cells; format: functional; details: Chlorocebus sabaeus
[35] = target: T1, Beta-galactosidase; test: detection-enzyme interference by beta-gal modulators – biochemical, E. coli enzyme, set 3, artefact control for CCR6 antagonist project, dose response (AID 504712); format: functional
[36] = target: T7, Heat shock factor protein 1 (Mus musculus, UniProt P38532); test: decrease of HSF1-responsive luciferase luminescence – cell-based, NIH3T3, dose retest, confirmation (AID 2382); format: functional;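 also: NIH3T3 fibroblasts with HSF1-driven luciferase reporter stressed by proteasome inhibitor MG132; luminescence from HSF1-driven luciferase expression after 8 hours of MG132 stress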
T7 sequence (P38532 whole entry): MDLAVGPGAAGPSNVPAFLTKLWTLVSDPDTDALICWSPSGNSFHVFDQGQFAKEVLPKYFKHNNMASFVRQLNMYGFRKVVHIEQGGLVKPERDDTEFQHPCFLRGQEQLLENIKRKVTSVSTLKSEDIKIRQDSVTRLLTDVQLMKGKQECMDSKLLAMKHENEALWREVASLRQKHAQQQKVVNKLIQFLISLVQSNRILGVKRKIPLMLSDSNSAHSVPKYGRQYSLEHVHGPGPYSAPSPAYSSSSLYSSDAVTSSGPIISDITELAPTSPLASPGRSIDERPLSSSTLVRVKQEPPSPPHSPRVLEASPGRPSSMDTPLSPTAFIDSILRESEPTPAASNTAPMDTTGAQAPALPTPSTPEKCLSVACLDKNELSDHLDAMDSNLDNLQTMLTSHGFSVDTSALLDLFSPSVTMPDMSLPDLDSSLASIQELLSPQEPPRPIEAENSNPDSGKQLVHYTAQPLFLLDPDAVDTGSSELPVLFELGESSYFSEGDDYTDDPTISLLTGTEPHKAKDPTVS

Sequence of Mu-type opioid receptor (P35372 whole entry): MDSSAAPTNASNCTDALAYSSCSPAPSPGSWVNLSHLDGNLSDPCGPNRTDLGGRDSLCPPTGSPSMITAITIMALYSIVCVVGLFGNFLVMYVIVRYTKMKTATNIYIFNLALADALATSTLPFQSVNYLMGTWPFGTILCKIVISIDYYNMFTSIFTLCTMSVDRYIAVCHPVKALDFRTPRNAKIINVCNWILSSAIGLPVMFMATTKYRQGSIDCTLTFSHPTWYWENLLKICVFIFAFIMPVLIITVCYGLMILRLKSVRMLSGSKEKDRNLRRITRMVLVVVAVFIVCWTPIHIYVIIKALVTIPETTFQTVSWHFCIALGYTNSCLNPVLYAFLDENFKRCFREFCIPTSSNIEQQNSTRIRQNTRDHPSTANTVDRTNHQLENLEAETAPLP

CCN(CC)C(CNC(=O)c1cc(=O)[nH]c2ccccc12)c1ccccc1Cl (stereo not drawn)
EC50 [1]: > 32 µM (inactive)
EC50 [2]: > 31.5 µM (inactive)
IC50 [3]: 14.6 µM
IC50 [4]: 14.9 µM (active)
IC50 [5]: > 32 µM (inactive)
EC50 [6]: > 32 µM (inactive)

c1ccc(CC2CCN(c3ncnc4sccc34)CC2)cc1
IC50 [7]: > 20 µM (inactive)
EC50 [8]: > 180 µM (inactive)
AC50 [9]: 5.88 µM (active)
IC50 [10]: > 55.7 µM (inactive)
EC50 [11]: 0.574 µM (active)
AC50 [12]: 1.84 µM (active)
IC50 [13]: 0.756 µM (active)
IC50 [14]: > 20 µM (inactive)
IC50 [15]: 0.505 µM (active)
AC50 [16]: 0.362 µM (active)
EC50 [17]: > 160 µM (inconclusive)
EC50 [18]: 19.5 µM (active)
IC50 [19]: > 20 µM (inactive)
IC50 [20]: 1.85 µM (active)
EC50 [21]: > 20 µM (inactive)

O=C(Nc1ccc(F)cc1)c1ccc(CN2CCc3ccccc32)cc1
IC50 [22]: > 20 µM (inactive)
IC50 [23]: > 20 µM (inactive)

C[C@@H](NC(=O)c1[nH]cnc1C(=O)Nc1ccon1)c1ccccc1
EC50 [24]: 16.4 µM (active)
EC50 [25]: 12 µM (active)
EC50 [26]: 25.9 µM (active)
IC50 [27]: 39.3 µM (active)

Cc1cccc(Cc2cnc(N3C(=N)SC(C)C3=O)s2)c1 (stereo not drawn)
IC50 [28]: 0.847 µM (active)
EC50 [1]: > 32 µM (inactive)
EC50 [29]: 2.41 µM (active)
EC50 [2]: > 31.5 µM (inactive)
EC50 [11]: 1.91 µM (active)
EC50 [30]: 7.82 µM (active)
IC50 [3]: > 32 µM
EC50 [31]: 0.179 µM (active)
IC50 [32]: 1.87 µM (active)
IC50 [4]: 5.68 µM (active)
EC50 [17]: > 160 µM (inconclusive)
EC50 [33]: > 60 µM (not active)
CC50 [34]: > 25 µM (active)
IC50 [35]: > 66.6 µM (inactive)
IC50 [5]: > 32 µM (inactive)
EC50 [6]: > 32 µM (inactive)

CCn1c(C)nc2cc(C(=O)NNC(=S)Nc3ccccc3)ccc21
EC50 [24]: 15.6 µM (active)
EC50 [36]: 0.192 µM (active)
EC50 [25]: 10.6 µM (active)
EC50 [26]: 15.4 µM (active)
IC50 [27]: 50.3 µM (active)
